In ChEMBL document CHEMBL5579789, “Azafuramidines as potential anticancer Agents: Pro-apoptotic profile and cell cycle arrest” (Bioorg Med Chem Lett, 2024):
Activity calls are given as the source filed them. No cut-off for these calls is given here.

Assays:
HepG2 [1] = experiment: Antiproliferative activity against human HepG2 cells assessed as change in cell viability at IC50 concentration; type: functional, cell-based
U2OS [2] = experiment: Induction of morphological changes in human U2OS cells assessed as appearance of vesicular nuclei at IC50 concentration; type: functional, cell-based
HepG2 [3] = experiment: Induction of morphological changes in human HepG2 cells assessed as appearance of degenerative features at IC50 concentration; type: functional, cell-based
U2OS [4] = experiment: Induction of morphological changes in human U2OS cells assessed as appearance of degenerative features at IC50 concentration; type: functional, cell-based
HepG2 [5] = experiment: Induction of morphological changes in human HepG2 cells assessed as cell detachment at IC50 concentration; type: functional, cell-based
HepG2 [6] = experiment: Induction of apoptosis in human HepG2 cells assessed as late apoptotic cells at IC50 concentration by annexin V-FITC/7-AAD staining based flow cytometric analysis (reference value: 0.3 %); type: functional
MCF7 [7] = experiment: Antiproliferative activity against human MCF7 cells assessed as inhibition of cell growth; type: functional, cell-based
[8] = Cytotoxicity against human WI-38 cells assessed as inhibition of cell growth; type: toxicity, cell-based
U2OS [9] = experiment: Antiproliferative activity against human U2OS cells assessed as inhibition of cell growth; type: functional, cell-based
HepG2 [10] = experiment: Induction of morphological changes in human HepG2 cells assessed as cell enlargement with vacuolated cytoplasm at IC50 concentration; type: functional, cell-based
MCF7 [11] = experiment: Induction of morphological changes in human MCF7 cells assessed as cell detachment at IC50 concentration; type: functional, cell-based
MCF7 [12] = experiment: Induction of morphological changes in human MCF7 cells assessed as appearance of hyper chromatic nuclei at IC50 concentration; type: functional, cell-based
HepG2 [13] = experiment: Induction of apoptosis in human HepG2 cells assessed as early apoptotic cells at IC50 concentration by annexin V-FITC/7-AAD staining based flow cytometric analysis (reference value: 0.0 %); type: functional
MCF7 [14] = experiment: Induction of morphological changes in human MCF7 cells assessed as cell enlargement with vacuolated cytoplasm at IC50 concentration; type: functional, cell-based
HepG2 [15] = experiment: Inhibition of cell migration in human HepG2 cells assessed as wound confluence at IC50 concentration incubated for 24 hrs by scratch wound assay (reference value: 98.01 +/- 0.14 %); type: functional; parameters: scale not given: the % may be the effect or the level left
HepG2 [16] = experiment: Induction of morphological changes in human HepG2 cells assessed as appearance of vesicular nuclei at IC50 concentration; type: functional, cell-based
HepG2 [17] = experiment: Inhibition of cell migration in human HepG2 cells assessed as wound confluence at IC50 concentration incubated for 4 hrs by scratch wound assay (reference value: 19.38 +/- 0.12 %); type: functional; parameters: scale not given: the % may be the effect or the level left
HepG2 [18] = experiment: Cell cycle arrest in human HepG2 cells assessed as accumulation of cells at S phase at IC50 concentration incubated for 48 hrs by PI staining based flow cytometric analysis (reference value: 21.0 %); type: functional
HepG2 [19] = experiment: Induction of apoptosis in human HepG2 cells assessed as late apoptotic cells at IC50 concentration by annexin V-FITC/7-AAD staining based flow cytometric analysis (reference value: 0.0 %); type: functional
U2OS [20] = experiment: Induction of morphological changes in human U2OS cells assessed as appearance of hyper chromatic nuclei at IC50 concentration; type: functional, cell-based
MCF7 [21] = experiment: Induction of morphological changes in human MCF7 cells assessed as appearance of dense nuclei at IC50 concentration; type: functional, cell-based
HepG2 [22] = experiment: Inhibition of cell migration in human HepG2 cells assessed as wound confluence at IC50 concentration incubated for 10 hrs by scratch wound assay (reference value: 32.01 +/- 0.67 %); type: functional; parameters: scale not given: the % may be the effect or the level left
HepG2 [23] = experiment: Cell cycle arrest in human HepG2 cells assessed as accumulation of cells at G2/M phase at IC50 concentration incubated for 48 hrs by PI staining based flow cytometric analysis (reference value: 19.4 %); type: functional
HepG2 [24] = experiment: Induction of apoptosis in human HepG2 cells assessed as apoptotic cells at IC50 concentration by annexin V-FITC/7-AAD staining based flow cytometric analysis (reference value: 0.28 %); type: functional
HepG2 [25] = experiment: Cell cycle arrest in human HepG2 cells assessed as accumulation of cells at G0/G1 phase at IC50 concentration incubated for 48 hrs by PI staining based flow cytometric analysis (reference value: 58.2 %); type: functional
HepG2 [26] = experiment: Induction of morphological changes in human HepG2 cells assessed as appearance of dense nuclei at IC50 concentration; type: functional, cell-based
HepG2 [27] = experiment: Induction of morphological changes in human HepG2 cells assessed as appearance of hyper chromatic nuclei at IC50 concentration; type: functional, cell-based
HepG2 [28] = experiment: Induction of apoptosis in human HepG2 cells assessed as fold increase in p53 level by Western blot analysis; type: functional
U2OS [29] = experiment: Induction of morphological changes in human U2OS cells assessed as appearance of dense nuclei at IC50 concentration; type: functional, cell-based
U2OS [30] = experiment: Antiproliferative activity against human U2OS cells assessed as change in cell viability at IC50 concentration; type: functional, cell-based
U2OS [31] = experiment: Induction of morphological changes in human U2OS cells assessed as cell detachment at IC50 concentration; type: functional, cell-based
MCF7 [32] = experiment: Antiproliferative activity against human MCF7 cells assessed as change in cell viability at IC50 concentration; type: functional, cell-based
MCF7 [33] = experiment: Induction of morphological changes in human MCF7 cells assessed as appearance of degenerative features at IC50 concentration; type: functional, cell-based
U2OS [34] = experiment: Induction of morphological changes in human U2OS cells assessed as cell enlargement with vacuolated cytoplasm at IC50 concentration; type: functional, cell-based
MCF7 [35] = experiment: Induction of morphological changes in human MCF7 cells assessed as appearance of vesicular nuclei at IC50 concentration; type: functional, cell-based
HepG2 [36] = experiment: Induction of apoptosis in human HepG2 cells assessed as viable cells at IC50 concentration by annexin V-FITC/7-AAD staining based flow cytometric analysis (reference value: 99.7 %); type: functional
HepG2 [37] = experiment: Antiproliferative activity against human HepG2 cells assessed as inhibition of cell growth; type: functional, cell-based
HepG2 [38] = experiment: Induction of apoptosis in human HepG2 cells assessed as fold increase in p27 level by Western blot analysis; type: functional
HepG2 [39] = experiment: Induction of apoptosis in human HepG2 cells assessed as fold increase in p21 level by Western blot analysis; type: functional
[40] = Inhibition of cell migration in human […] cells at IC50 concentration incubated for 24 hrs relative to control; type: functional

Row | IC50 (MCF7 [7]) | IC50 (U2OS [9]) | Compound | Activity (HepG2 [1]) | Activity (U2OS [2]) | Activity (HepG2 [3]) | Activity (U2OS [4]) | Activity (HepG2 [5]) | Activity (HepG2 [6]) | IC50 [8] | Activity (HepG2 [10]) | Activity (MCF7 [11]) | Activity (MCF7 [12]) | Activity (HepG2 [13]) | Activity (MCF7 [14]) | Activity (HepG2 [15]) | Activity (HepG2 [16]) | Activity (HepG2 [17]) | Activity (HepG2 [18]) | Activity (HepG2 [19]) | Activity (U2OS [20]) | also measured
1 | 1690 nM | 1810 nM | N=C(N)c1ccc(-c2ccc(-c3cc(Cl)cc(Cl)c3)o2)nc1 | Active | Active | Active | Active | Active | 14.3% | 101000 nM | Active | Active | Active | 54% | Active | 64.83% | Active | 14.4% | 19.1% | 0.1% | Active | Activity (MCF7 [21]): Active; Activity (HepG2 [22]): 47.49%; Activity (HepG2 [23]): 20.6%; Activity (HepG2 [24]): 66.1%; Activity (HepG2 [25]): 59.6%; Activity (HepG2 [26]): Active; Activity (HepG2 [27]): Active; fold change (FC) (HepG2 [28]): ~2.5; Activity (U2OS [29]): Active; Activity (U2OS [30]): Active; Activity (U2OS [31]): Active; Activity (MCF7 [32]): Active; Activity (MCF7 [33]): Active; Activity (U2OS [34]): Active; Activity (MCF7 [35]): Active; Activity (HepG2 [36]): 31.5%; IC50 (HepG2 [37]): 1870 nM
2 | 1640 nM | 1730 nM | N=C(N)c1ccc(-c2ccc(-c3ccc(Cl)cc3)o2)nc1 | Active | Active | Active | Active | Active | 16.9% | 77000 nM | Active | Active | Active | 54% | Active | 46.65% | Active | 14.19% | 43.6% | 0.4% | Active | Activity (MCF7 [21]): Active; Activity (HepG2 [22]): 33.72%; Activity (HepG2 [23]): 47.1%; fold change (FC) (HepG2 [38]): ~2.3; Activity (HepG2 [24]): 70.5%; Activity (HepG2 [25]): 9.2%; Activity (HepG2 [26]): Active; Activity (HepG2 [27]): Active; fold change (FC) (HepG2 [28]): ~2.5; Activity (U2OS [29]): Active; fold change (FC) (HepG2 [39]): ~3; Activity (U2OS [30]): Active; inhibition (INH) [40]: ~55%; Activity (U2OS [31]): Active; Activity (MCF7 [32]): Active; Activity (MCF7 [33]): Active; Activity (U2OS [34]): Active; Activity (MCF7 [35]): Active; Activity (HepG2 [36]): 28.7%; IC50 (HepG2 [37]): 1550 nM
3 | 1600 nM | 1720 nM | N=C(N)c1ccc(-c2ccc(-c3ccc(F)cc3)o2)nc1 | Active | Active | Active | Active | Active | 10.6% | 89000 nM | Active | Active | Active | 47.4% | Active | 42.09% | Active | 14.07% | 39.1% | 0.1% | Active | Activity (MCF7 [21]): Active; Activity (HepG2 [22]): 32.89%; Activity (HepG2 [23]): 41.4%; fold change (FC) (HepG2 [38]): ~3.1; Activity (HepG2 [24]): 59.3%; Activity (HepG2 [25]): 19.4%; Activity (HepG2 [26]): Active; Activity (HepG2 [27]): Active; fold change (FC) (HepG2 [28]): ~2.5; Activity (U2OS [29]): Active; fold change (FC) (HepG2 [39]): ~5; Activity (U2OS [30]): Active; inhibition (INH) [40]: ~55%; Activity (U2OS [31]): Active; Activity (MCF7 [32]): Active; Activity (MCF7 [33]): Active; Activity (U2OS [34]): Active; Activity (MCF7 [35]): Active; Activity (HepG2 [36]): 41.9%; IC50 (HepG2 [37]): 1060 nM
